In the NIST ThermoML archive (doi:10.1021/je800026p):

Test: xn = mol fraction of the nth substance listed
Settings: 101 kPa, Liquid; for speed of sound: Sing-around technique in a fixed-path interferometer; for mass density: Vibrating tube method

CCCCCCOCCOCCO [2-(2-hexyloxyethoxy)ethanol] + CCCCN
Settings	mass density, 288.15 K [kg/m3]	mass density, 293.15 K [kg/m3]	mass density, 298.15 K [kg/m3]	mass density, 303.15 K [kg/m3]	mass density, 308.15 K [kg/m3]	speed of sound, 288.15 K [m/s]	speed of sound, 293.15 K [m/s]	speed of sound, 298.15 K [m/s]	speed of sound, 303.15 K [m/s]	speed of sound, 308.15 K [m/s]
x1 = 0.1165	788.964	784.34	779.774	775.186	770.602	1323	1302.2	1281.5	1260.8	1240.3
x1 = 0.1587	803.568	799.044	794.52	790	785.486	1332.3	1312	1291.7	1271.5	1251.3
x1 = 0.1943	814.988	810.552	806.078	801.606	797.118	1339.5	1319.7	1299.7	1279.8	1259.8
x1 = 0.2403	828.571	824.179	819.765	815.333	810.88	1348.2	1328.7	1309.1	1289.6	1270
x1 = 0.2974	843.631	839.297	834.939	830.566	826.173	1357.8	1338.8	1319.6	1300.6	1281.3
x1 = 0.3403	853.769	849.458	845.129	840.783	836.421	1364.2	1345.5	1326.6	1307.9	1288.9
x1 = 0.3916	864.666	860.386	856.092	851.78	847.457	1371.1	1352.6	1334.1	1315.7	1297.1
x1 = 0.4568	876.866	872.668	868.407	864.132	859.843	1378.6	1360.4	1342.2	1324.2	1306
x1 = 0.5105	885.772	881.607	877.388	873.158	868.903	1383.9	1365.9	1348	1330.1	1312.3
x1 = 0.5658	894.125	889.991	885.768	881.571	877.355	1388.5	1370.7	1353	1335.3	1317.8
x1 = 0.6081	900.031	895.896	891.728	887.547	883.355	1391.5	1373.9	1356.3	1338.8	1321.2
x1 = 0.6559	906.287	902.162	898.025	893.876	889.716	1394.5	1376.9	1359.5	1342.1	1324.9
x1 = 0.6977	911.396	907.303	903.194	899.074	894.942	1396.7	1379.2	1361.8	1344.5	1327.5
x1 = 0.7402	916.322	912.248	908.162	904.067	899.964	1398.6	1381.2	1363.9	1346.7	1329.8
x1 = 0.8029	923	918.949	914.893	910.805	906.755	1400.8	1383.5	1366.4	1349.3	1332.5
x1 = 0.8675	928.954	924.929	920.91	916.89	912.833	1402.5	1385.4	1368.3	1351.4	1334.6
x1 = 0.9082	932.126	928.121	924.113	920.095	916.07	1403.4	1386.3	1369.3	1352.4	1335.7
x1 = 0.9635	935.472	931.477	927.494	923.492	919.484	1404.3	1387.4	1370.4	1353.6	1336.8
